{"source": "patent US20260199362A1", "about": "“VITAMIN B2 FOR USE IN IMPROVING GUT HEALTH” (DSM IP Assets B.V., priority 2022, published 2026)", "test_system": "Lactobacillus rhamnosus GG (Lactobacillus rhamnosus DSM 32550)", "assay": "Short-term batch-fermentation colon model (M-SHIME) with qPCR of Lactobacillus rhamnosus GG level", "format": "cell-based", "method": "A short-term batch-fermentation experiment was carried out by ProDigest, consisting of a colonic incubation of a representative dose of a selected vitamin with a representative bacterial inoculum under simulated conditions for the proximal large intestine. In the current experiment, the bacterial inocula were derived from fresh fecal samples of six different healthy adult donors. […]\nIn this study, the Lactobacillus rhamnosus GG equivalent Lactobacillus rhamnosus DSM 32550 (Biocare Copenhagen) was added to the colon model containing the donor samples, alone or in combination with vitamin B2 (see Table 1). After 48 h of incubation, the abundance of the added strain was analyzed using primers that are specific for Lactobacillus rhamnosus GG and its equivalent Lactobacillus rhamnosus DSM 32550. […]\nqPCR was performed on putative phage tail protein gene (NCBI reference NC_013198) to monitor the level of the supplemented probiotic Lactobacillus rhamnosus GG strain within the gut microbiome, as described previously (Brandt, Alatossava (2003)-Specific identification of certain probiotic Lactobacillus rhamnosus strains with PCR primers based on phage-related sequences). Samples were analyzed from the mucus environment following 48 h of incubation. […]"}
{"smiles": "Cc1cc2nc3c(=O)[nH]c(=O)nc-3n(C[C@H](O)[C@H](O)[C@H](O)CO)c2cc1C", "note": "[vitamin B2, riboflavin]", "values": [{"measurement": "copies of the Lactobacillus rhamnosus GG specific putative phage tail protein gene relative to control (Lactobacillus rhamnosus GG alone)", "setting": "vitamin B2 0.01667 g/L co-supplemented with L. rhamnosus GG 1*10^9 CFU, mucus environment, 48 h colonic incubation, fecal inocula of six healthy human donors, average, qPCR", "value": "around three"}, {"measurement": "levels of Lactobacillus rhamnosus GG in the colon model, as compared to the respective control", "setting": "vitamin B2 0.01667 g/L co-supplemented with L. rhamnosus GG, 48 h, six human donors, paired t-test, p<0.05", "value": "significantly increased"}]}
